Publication PMC4852132 (Biochemistry, 2016)
Where “and” joins values, the source holds several entries; their conditions need not be identical. Equal values may be shown once. Read-outs that look alike come from different tables or passages of the source.

What was measured:
[1] = target: T1, E1p-h (Homo sapiens, UniProt P08559+P11177); test: Quenching of intrinsic fluorescence of E1p-h; assay type: binding
T1 sequence (P08559 30-390): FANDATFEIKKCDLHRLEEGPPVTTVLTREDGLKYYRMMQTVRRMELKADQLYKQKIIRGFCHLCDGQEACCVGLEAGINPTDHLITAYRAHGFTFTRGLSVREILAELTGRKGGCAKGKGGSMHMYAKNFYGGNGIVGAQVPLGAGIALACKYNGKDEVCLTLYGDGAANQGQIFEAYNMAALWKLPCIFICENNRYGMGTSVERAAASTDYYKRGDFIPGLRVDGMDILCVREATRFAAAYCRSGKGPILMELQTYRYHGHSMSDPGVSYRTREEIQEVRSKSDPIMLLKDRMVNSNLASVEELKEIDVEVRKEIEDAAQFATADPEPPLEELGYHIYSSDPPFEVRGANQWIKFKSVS
T1 sequence (P11177 31-359): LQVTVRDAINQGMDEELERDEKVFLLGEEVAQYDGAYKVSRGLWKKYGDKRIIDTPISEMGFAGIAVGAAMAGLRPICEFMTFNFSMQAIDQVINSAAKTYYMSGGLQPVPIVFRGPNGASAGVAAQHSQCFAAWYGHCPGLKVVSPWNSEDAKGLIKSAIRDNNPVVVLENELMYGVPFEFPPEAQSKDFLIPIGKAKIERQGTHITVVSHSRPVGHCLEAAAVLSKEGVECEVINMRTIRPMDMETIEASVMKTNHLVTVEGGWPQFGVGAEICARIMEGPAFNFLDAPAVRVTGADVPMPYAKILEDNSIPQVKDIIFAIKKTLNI

[2] = target: T1, E1p-h; test: MS reductive acetylation of the E2p-h lipoyl domain; assay type: biochemical; conditions: E1p-h with cofactor and pyruvate
[3] = target: T2, PDHc-ec (Escherichia coli, UniProt P0AFG8)
T2 sequence (P0A9P0 2-474): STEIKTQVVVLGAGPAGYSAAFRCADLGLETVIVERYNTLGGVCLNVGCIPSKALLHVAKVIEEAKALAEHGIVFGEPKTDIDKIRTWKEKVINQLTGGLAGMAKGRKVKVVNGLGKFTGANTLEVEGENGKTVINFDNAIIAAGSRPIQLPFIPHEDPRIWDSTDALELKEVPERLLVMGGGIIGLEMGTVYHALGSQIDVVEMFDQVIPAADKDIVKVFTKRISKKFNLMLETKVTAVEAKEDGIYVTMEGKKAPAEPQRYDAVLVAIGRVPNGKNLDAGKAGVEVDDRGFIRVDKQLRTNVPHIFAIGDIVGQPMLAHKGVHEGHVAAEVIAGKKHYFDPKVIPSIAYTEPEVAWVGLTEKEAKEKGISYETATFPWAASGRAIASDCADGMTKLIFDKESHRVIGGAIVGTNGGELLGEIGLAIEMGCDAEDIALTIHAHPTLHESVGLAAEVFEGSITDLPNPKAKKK
T2 sequence (P06959 2-630, further chain): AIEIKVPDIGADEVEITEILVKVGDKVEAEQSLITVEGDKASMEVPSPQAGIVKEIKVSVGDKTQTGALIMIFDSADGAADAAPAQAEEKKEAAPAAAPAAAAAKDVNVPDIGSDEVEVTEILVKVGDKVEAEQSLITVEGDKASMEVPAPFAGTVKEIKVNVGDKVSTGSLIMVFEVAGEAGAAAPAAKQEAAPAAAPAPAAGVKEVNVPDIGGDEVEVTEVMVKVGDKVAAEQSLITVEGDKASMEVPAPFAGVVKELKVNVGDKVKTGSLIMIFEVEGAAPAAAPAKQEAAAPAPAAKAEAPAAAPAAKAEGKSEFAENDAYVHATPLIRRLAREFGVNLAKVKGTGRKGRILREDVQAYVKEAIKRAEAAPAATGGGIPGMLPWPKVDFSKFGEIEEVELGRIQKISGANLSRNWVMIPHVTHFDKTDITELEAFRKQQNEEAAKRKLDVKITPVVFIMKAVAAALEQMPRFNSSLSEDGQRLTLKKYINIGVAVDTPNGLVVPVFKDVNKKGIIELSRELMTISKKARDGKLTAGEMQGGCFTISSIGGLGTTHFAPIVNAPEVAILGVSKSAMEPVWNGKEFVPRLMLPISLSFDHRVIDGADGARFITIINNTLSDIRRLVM
T2 sequence (P0AFG8 2-887): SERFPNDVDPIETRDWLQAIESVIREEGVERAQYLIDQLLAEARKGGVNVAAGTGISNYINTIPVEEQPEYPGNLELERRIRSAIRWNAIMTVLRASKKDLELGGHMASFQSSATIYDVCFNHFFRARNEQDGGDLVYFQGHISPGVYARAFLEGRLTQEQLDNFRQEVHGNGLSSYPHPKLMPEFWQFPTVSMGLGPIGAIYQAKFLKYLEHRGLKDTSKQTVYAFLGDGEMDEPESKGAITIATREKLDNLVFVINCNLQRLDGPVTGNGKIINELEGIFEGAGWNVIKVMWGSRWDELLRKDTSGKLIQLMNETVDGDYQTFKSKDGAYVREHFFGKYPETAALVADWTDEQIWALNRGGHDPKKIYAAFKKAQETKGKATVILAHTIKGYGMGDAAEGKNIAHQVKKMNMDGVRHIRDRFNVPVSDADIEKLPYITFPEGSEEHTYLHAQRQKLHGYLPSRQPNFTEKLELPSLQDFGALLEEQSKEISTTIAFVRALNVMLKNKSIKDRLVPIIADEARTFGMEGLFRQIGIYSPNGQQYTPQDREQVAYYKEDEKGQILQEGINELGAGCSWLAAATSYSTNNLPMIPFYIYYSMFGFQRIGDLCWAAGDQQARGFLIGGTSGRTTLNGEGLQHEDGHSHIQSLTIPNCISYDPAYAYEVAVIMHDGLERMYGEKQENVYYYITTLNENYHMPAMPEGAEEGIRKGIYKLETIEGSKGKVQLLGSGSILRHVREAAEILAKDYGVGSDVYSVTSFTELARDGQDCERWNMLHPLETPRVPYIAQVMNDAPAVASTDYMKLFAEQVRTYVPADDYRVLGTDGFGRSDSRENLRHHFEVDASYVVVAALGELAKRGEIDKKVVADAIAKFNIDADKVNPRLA

[4] = target: T1, E1p-h; conditions: MeOThDP bound on E1p-h; CD309 vs pH
[5] = target: T3, E1p-ec (Escherichia coli, UniProt P0AFG8)
T3 sequence (P0AFG8 2-887 limits assumed): as the sequence (P0AFG8 2-887) above

[6] = target: T4, DXPS (Escherichia coli, UniProt P77488); conditions: apo-DXPS with 0.15 mM cofactor, 5 °C, 15 h
T4 sequence (P77488 whole entry): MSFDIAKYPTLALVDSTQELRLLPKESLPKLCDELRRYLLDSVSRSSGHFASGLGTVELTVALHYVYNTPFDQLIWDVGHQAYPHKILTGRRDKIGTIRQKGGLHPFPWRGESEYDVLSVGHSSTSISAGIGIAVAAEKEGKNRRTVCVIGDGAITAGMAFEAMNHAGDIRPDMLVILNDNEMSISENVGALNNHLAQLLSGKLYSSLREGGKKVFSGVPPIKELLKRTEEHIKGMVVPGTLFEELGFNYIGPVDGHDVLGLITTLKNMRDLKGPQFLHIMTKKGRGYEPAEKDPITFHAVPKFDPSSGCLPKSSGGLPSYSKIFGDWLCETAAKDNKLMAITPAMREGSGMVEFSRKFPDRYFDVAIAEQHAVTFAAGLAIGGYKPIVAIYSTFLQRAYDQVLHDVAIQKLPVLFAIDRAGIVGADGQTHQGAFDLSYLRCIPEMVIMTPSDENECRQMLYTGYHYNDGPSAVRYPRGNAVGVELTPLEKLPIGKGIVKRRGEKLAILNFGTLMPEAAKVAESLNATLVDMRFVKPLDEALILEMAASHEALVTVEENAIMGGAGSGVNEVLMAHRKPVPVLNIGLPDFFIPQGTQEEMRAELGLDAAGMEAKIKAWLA

[7] = target: T5, E1o-h (Homo sapiens, UniProt Q02218); test: E1o-h specific activity; assay type: biochemical
T5 sequence (Q02218 41-1023): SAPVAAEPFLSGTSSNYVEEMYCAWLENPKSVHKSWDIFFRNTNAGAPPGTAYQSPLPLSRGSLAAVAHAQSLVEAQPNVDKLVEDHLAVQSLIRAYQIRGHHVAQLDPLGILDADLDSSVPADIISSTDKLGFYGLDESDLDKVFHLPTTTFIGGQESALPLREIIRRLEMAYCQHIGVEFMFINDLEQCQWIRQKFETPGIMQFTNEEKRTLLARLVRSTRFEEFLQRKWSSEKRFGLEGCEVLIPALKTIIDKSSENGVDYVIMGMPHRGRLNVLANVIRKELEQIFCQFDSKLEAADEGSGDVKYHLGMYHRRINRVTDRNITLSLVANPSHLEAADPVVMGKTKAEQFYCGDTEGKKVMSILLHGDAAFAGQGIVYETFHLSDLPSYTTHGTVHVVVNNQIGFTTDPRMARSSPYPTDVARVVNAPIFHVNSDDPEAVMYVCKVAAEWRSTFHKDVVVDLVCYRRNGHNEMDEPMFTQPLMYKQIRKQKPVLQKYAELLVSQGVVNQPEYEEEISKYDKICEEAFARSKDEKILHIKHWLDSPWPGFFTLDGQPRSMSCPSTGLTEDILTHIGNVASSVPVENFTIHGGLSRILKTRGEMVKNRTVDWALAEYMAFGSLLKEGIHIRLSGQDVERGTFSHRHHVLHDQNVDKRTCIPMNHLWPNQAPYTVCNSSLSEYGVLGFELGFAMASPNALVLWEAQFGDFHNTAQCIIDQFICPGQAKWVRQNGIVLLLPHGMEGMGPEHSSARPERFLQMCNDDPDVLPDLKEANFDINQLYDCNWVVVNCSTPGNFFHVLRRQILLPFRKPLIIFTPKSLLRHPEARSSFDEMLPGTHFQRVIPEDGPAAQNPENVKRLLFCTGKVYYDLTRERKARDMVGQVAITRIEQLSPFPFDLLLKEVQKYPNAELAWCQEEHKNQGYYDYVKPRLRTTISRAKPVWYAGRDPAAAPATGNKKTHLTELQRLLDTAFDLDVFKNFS

[8] = target: E1o-ec (Escherichia coli, UniProt P0AFG3); test: E1o-ec specific activity; assay type: biochemical
E1o-ec, sequence (P0AFG3 whole entry): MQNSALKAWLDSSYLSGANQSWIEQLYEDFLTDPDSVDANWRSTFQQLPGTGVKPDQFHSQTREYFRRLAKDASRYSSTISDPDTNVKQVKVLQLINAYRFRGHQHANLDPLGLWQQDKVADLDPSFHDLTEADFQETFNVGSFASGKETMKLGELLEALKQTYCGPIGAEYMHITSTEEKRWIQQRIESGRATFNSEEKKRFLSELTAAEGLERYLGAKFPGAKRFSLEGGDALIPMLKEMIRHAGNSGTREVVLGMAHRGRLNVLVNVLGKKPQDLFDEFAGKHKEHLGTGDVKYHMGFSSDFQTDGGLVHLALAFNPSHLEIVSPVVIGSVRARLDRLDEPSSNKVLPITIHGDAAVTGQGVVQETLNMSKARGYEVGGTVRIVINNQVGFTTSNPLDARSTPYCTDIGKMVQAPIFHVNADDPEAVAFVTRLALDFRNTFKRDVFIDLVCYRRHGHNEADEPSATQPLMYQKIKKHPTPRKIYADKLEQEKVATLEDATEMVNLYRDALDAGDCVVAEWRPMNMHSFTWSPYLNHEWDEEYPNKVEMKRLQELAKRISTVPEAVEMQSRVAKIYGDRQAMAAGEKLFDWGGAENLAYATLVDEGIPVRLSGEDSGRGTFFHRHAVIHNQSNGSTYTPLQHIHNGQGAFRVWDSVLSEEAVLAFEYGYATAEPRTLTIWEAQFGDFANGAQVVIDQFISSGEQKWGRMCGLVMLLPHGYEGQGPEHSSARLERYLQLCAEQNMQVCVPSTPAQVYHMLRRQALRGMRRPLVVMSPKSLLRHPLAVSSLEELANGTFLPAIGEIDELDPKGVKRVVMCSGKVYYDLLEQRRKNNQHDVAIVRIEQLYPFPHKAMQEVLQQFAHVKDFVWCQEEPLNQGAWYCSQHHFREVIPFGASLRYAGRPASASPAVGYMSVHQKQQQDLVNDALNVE

[9] = target: T2, PDHc-ec; conditions: ThDP binding to PDHc-ec; cited from earlier work
[10] = target: T1, E1p-h; conditions: ThDP on E1p-h; cited from earlier work
[11] = target: T3, E1p-ec; conditions: E1p-ec complexed with ThDP; cited from earlier work
[12] = target: T3, E1p-ec; test: biochemical
[13] = target: T4, DXPS; test: biochemical
[14] = MeOThDP, PDHc-ec reconstituted from apo-E1p-ec, from lag phase

Q: Which “percent of E1p-h fluorescence quenched” value [1] does the source give for COc1ncc(C[n+]2csc(CCOP(=O)(O)OP(=O)(O)O)c2C)c(N)n1 [MeOThDP, 2′-methoxythiamin diphosphate] here?
A: 4%

Q: And the Kd ([1]; read-out: Kd from quenching of E1p-h fluorescence)?
A: 16.2 ± 4.5 µM

Q: What about the “rate of reductive acetylation of LD1-h” value [2] of the same compound?
A: 6.38 s⁻¹

Q: And the K1 binding constant ([3]; MeOThDP, PDHc-ec reconstituted from apo-E1p-ec, E2p-ec, E3-ec, from lag phase)?
A: 300000 M⁻¹

Q: And the “k2 forward rate constant of binding” value [3, 14]?
A: 0.0087 s⁻¹

Q: What about the “k3 forward rate constant for second cofactor binding” value [3, 14] of the same compound?
A: 49 M⁻¹ s⁻¹

Q: What about the “k-2 dissociation rate constant” value [3, 14] of the same compound?
A: 0.0033 s⁻¹

Q: And the “k-3 reverse rate constant for dissociation of second cofactor” value [3, 14]?
A: 0.0069 s⁻¹

Q: What about the “k3 times lower than that for ThDP” value ([3]; binding of second MeOThDP vs ThDP) of the same compound?
A: ~ 14 times

Q: What about the Kd ([3]; read-out: Kd,MeOThDP calculated as 1/K1,MeOThDP, from Table 2) of the same compound?
A: 3.45 ± 0.74 µM

Q: And the “pKa for the ([AP] + [IP])/[APH^+] equilibrium” value [4]?
A: 8.02 ± 0.03

Q: And the “rate constant of reductive acetylation of LDh-ec” value ([5]; E1p-ec complexed with MeOThDP (0.20 mM), 2 mM pyruvate)?
A: 4.4 s⁻¹

Q: And the “rate constant of reductive acetylation, times slower than with ThDP” value ([5]; E1p-ec with MeOThDP vs ThDP)?
A: at least 10 times

Q: What about the “formation of (R)-acetolactate from pyruvate” value [6] of the same compound?
A: not the case

Q: Which results are given for Cc1ncc(C[n+]2csc(CCOP(=O)([O-])OP(=O)(O)O)c2C)c(N)n1 [ThDP, thiamin diphosphate]?
A: Kd [1]: 7.2 ± 0.5 µM; percent of E1p-h fluorescence quenched [1]: 19%; rate of reductive acetylation of LD1-h [2]: 10.25 s⁻¹; E1o specific activity, percent of that with ThDP ([7]; E1o-h): 100%; E1o specific activity ([7]; E1o-h alone): 0.51 ± 0.02 µmol min^−1 (mg of E1o)^−1 and 0.44 ± 0.08 µmol min^−1 (mg of E1o)^−1; E1o specific activity, percent of that with ThDP ([8]; E1o-ec): 100%; E1o specific activity ([8]; E1o-ec alone): 0.54 ± 0.03 µmol min^−1 (mg of E1o)^−1 and 0.54 ± 0.31 µmol min^−1 (mg of E1o)^−1; formation of (R)-acetolactate from pyruvate [6]: formation of (R)-acetolactate; K1 binding constant [9]: 1.2e+06 M⁻¹; k2 forward rate constant of binding [9]: 0.0112 s⁻¹; k3 forward rate constant for second cofactor binding [9]: 710 M⁻¹ s⁻¹; k-2 dissociation rate constant [9]: 0.0038 s⁻¹; k-3 reverse rate constant for dissociation of second cofactor [9]: 0.0076 s⁻¹; pKa for the ([AP] + [IP])/[APH^+] equilibrium [10]: 7.07 ± 0.1; rate constant of reductive acetylation of LDh-ec [11]: 52 s⁻¹; Kd [12]: 7 ± 0.9 µM; Kd [13]: 3.5 ± 0.1 µM
